According to the supplement of paper PMC8617591:

Legend:
[1] = test system: Mycobacterium tuberculosis Erdman (autoluminescent); experiment: Einf, fitted maximum growth inhibition of combination (fraction); higher = stronger maximal inhibition
Experimental: (§1)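 DiaMOND equipotent two-drug combination dose responses against autoluminescent M. tuberculosis Erdman in 8 in vitro models. Read-out is OD600, or luminescence for the intracellular and dormancy models, normalised to untreated wells. Hill-fit Einf, AUC25 and GRinf are potency metrics; FIC50 and FIC90 are Loewe-additivity fractional inhibitory concentrations, given as log2 (negative = synergy). Replicates are averaged.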

[2] = test system: Mycobacterium tuberculosis Erdman (autoluminescent); experiment: GRinf, maximum normalised growth rate inhibition (unitless (-1 to 1)); higher = less effect (negative = killing)
Experimental: as §1

[3] = test system: Mycobacterium tuberculosis Erdman (autoluminescent); experiment: FIC90 (Loewe) at 90% inhibition (log2); higher = more antagonistic
Experimental: as §1

[4] = test system: Mycobacterium tuberculosis Erdman (autoluminescent); experiment: FIC50 (Loewe) at 50% inhibition (log2); higher = more antagonistic
Experimental: as §1

[5] = test system: Mycobacterium tuberculosis Erdman (autoluminescent); experiment: AUC25, normalised area under dose response up to IC25 (fraction (0-1)); higher = more potent at low dose
Experimental: as §1

CC[C@@H](CO)NCCN[C@@H](CC)CO [ethambutol] + CO[C@H]1/C=C/O[C@@]2(C)Oc3c(C)c(O)c4c(O)c(c(/C=N/N5CCN(C6CCCC6)CC5)c(O)c4c3C2=O)NC(=O)/C(C)=C\C=C\[C@H](C)[C@H](O)[C@@H](C)[C@@H](O)[C@@H](C)[C@H](OC(C)=O)[C@@H]1C [rifapentine]
Conditions	AUC25, [5]	Einf, [1]	FIC50, [4]	FIC90, [3]	GRinf, [2]
in vitro model: acidic pH 5.7, time point: constant (~7 days, model-specific)	0.0932	0.893	-0.302	–	-0.289
in vitro model: acidic pH 5.7, time point: terminal (~4-5 doublings, model-specific)	0.0462	0.985	0.0731	-0.209	-0.287
in vitro model: intracellular J774, time point: constant = terminal	–	0.959	–	-2.62	-0.236

Conditions	AUC25, [5]	Einf, [1]	FIC50, [4]	FIC90, [3]	GRinf, [2]
in vitro model: butyrate, time point: constant (~7 days, model-specific)	0.0627	0.91	0.244	–	0.0321
in vitro model: butyrate, time point: terminal (~4-5 doublings, model-specific)	0.0478	0.959	0.226	-0.659	0.0099
in vitro model: cholesterol 0.05 mM, time point: constant (~7 days, model-specific)	0.118	0.694	0.509	–	-0.191
in vitro model: cholesterol 0.05 mM, time point: terminal (~4-5 doublings, model-specific)	0.0857	0.889	0.404	–	-0.163
in vitro model: cholesterol-high 0.2 mM, time point: constant (~7 days, model-specific)	0.0262	0.944	0.734	–	-0.482
in vitro model: cholesterol-high 0.2 mM, time point: terminal (~4-5 doublings, model-specific)	0.0335	1	0.916	0.787	-0.739
in vitro model: dormancy (butyrate + nitrate, low O2), time point: constant (~7 days, model-specific)	0.103	0.855	0.28	–	0.366
in vitro model: dormancy (butyrate + nitrate, low O2), time point: terminal (~4-5 doublings, model-specific)	0.119	0.99	0.137	0.579	-0.485
in vitro model: standard 7H9 glycerol, time point: constant = terminal	0.0363	0.939	0.0721	-0.243	-0.0574
in vitro model: valerate, time point: constant (~7 days, model-specific)	0.0721	0.874	0.0991	–	0.0371
in vitro model: valerate, time point: terminal (~4-5 doublings, model-specific)	0.034	0.935	0.275	-0.509	0.0428

CC[C@@H](CO)NCCN[C@@H](CC)CO [ethambutol] + CO[C@H]1/C=C/O[C@@]2(C)Oc3c(C)c(O)c4c(O)c(c(/C=N/N5CCN(C)CC5)c(O)c4c3C2=O)NC(=O)/C(C)=C\C=C\[C@H](C)[C@H](O)[C@@H](C)[C@@H](O)[C@@H](C)[C@H](OC(C)=O)[C@@H]1C [rifampicin]
Conditions	AUC25, [5]	Einf, [1]	FIC50, [4]	FIC90, [3]	GRinf, [2]
in vitro model: acidic pH 5.7, time point: constant (~7 days, model-specific)	0.0993	0.914	-0.394	–	-0.41
in vitro model: acidic pH 5.7, time point: terminal (~4-5 doublings, model-specific)	0.0298	0.979	0.0255	-0.711	-0.247
in vitro model: intracellular J774, time point: constant = terminal	–	0.967	–	-2.96	-0.274

Conditions	AUC25, [5]	Einf, [1]	FIC50, [4]	FIC90, [3]	GRinf, [2]
in vitro model: butyrate, time point: constant (~7 days, model-specific)	0.0748	0.918	0.144	–	-0.00723
in vitro model: butyrate, time point: terminal (~4-5 doublings, model-specific)	0.0614	0.965	0.0567	-0.897	-0.02
in vitro model: cholesterol 0.05 mM, time point: constant (~7 days, model-specific)	0.0842	0.701	-0.298	–	-0.173
in vitro model: cholesterol 0.05 mM, time point: terminal (~4-5 doublings, model-specific)	0.0953	0.887	0.234	–	-0.127
in vitro model: cholesterol-high 0.2 mM, time point: constant (~7 days, model-specific)	0.029	0.952	0.64	–	-0.414
in vitro model: cholesterol-high 0.2 mM, time point: terminal (~4-5 doublings, model-specific)	0.0647	0.996	0.607	0.842	-0.635
in vitro model: dormancy (butyrate + nitrate, low O2), time point: constant (~7 days, model-specific)	0.0667	0.847	-0.0202	–	0.407
in vitro model: dormancy (butyrate + nitrate, low O2), time point: terminal (~4-5 doublings, model-specific)	0.067	0.988	0.236	-0.513	-0.164
in vitro model: standard 7H9 glycerol, time point: constant = terminal	0.0324	0.894	-0.0789	–	0.143
in vitro model: valerate, time point: constant (~7 days, model-specific)	0.0519	0.845	-0.00587	–	0.0704
in vitro model: valerate, time point: terminal (~4-5 doublings, model-specific)	0.0294	0.933	0.0274	-1.32	0.0354
